Test results published in ChEMBL document CHEMBL1134790, “Design, synthesis, and evaluation of novel A2A adenosine receptor agonists” (J Med Chem, 2001).

Key:
Adenosine receptor A1 = biological target: T1, Adenosine receptor A1 (Rattus norvegicus, UniProt P25099); assay: biochemical
T1 sequence (P25099 whole entry): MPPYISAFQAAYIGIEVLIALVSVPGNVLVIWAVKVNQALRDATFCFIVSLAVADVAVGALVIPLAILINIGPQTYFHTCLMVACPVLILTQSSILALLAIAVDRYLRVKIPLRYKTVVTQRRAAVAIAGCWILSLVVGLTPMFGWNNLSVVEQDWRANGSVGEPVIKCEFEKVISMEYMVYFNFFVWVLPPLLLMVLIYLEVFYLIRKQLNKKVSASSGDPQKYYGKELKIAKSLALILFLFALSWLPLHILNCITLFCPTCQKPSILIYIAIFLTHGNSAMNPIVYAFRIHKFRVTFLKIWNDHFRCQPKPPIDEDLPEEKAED
Description: Binding affinity towards adenosine A1 receptor in rat brain cortex

Adenosine receptor A2a = Adenosine receptor A2a (Rattus norvegicus, UniProt P30543); assay: biochemical
Sequence of Adenosine receptor A2a (P30543 whole entry): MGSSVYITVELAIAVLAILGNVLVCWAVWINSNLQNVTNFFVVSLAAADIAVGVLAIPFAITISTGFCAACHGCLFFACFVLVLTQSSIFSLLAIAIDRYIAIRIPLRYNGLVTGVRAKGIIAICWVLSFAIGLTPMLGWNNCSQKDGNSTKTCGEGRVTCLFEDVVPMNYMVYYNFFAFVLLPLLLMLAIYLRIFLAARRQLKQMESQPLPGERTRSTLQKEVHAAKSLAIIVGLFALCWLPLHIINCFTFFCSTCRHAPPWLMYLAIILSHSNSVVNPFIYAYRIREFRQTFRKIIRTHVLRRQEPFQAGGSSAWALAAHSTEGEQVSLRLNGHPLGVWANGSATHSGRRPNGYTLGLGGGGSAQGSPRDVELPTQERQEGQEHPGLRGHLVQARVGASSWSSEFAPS
Description: Binding affinity towards adenosine A2A receptor in rat brain striatum

Structure (SMILES)	Ki (Adenosine receptor A1) [nM]	Ki (Adenosine receptor A2a) [nM]
Nc1nc(OCCc2cccc(Cl)c2)nc2c1ncn2C1O[C@H](CO)[C@@H](O)[C@H]1O (some centres undefined)	250	76
COc1cc(CCOc2nc(N)c3ncn(C4O[C@H](CO)[C@@H](O)[C@H]4O)c3n2)cc(OC)c1OC (some centres undefined)	5000	330
Nc1nc(OCCc2cccc(F)c2)nc2c1ncn2[C@@H]1O[C@H](CO)[C@@H](O)[C@H]1O (stereo in doubt; 24)	150	58
CCNC(=O)[C@H]1OC(n2cnc3c(N)nc(NCCc4ccc(OCC(=O)O)cc4)nc32)[C@H](O)[C@@H]1O (some centres undefined)	–	42
Nc1nc(OCCc2ccc(Cl)cc2)nc2c1ncn2[C@@H]1O[C@H](CO)[C@@H](O)[C@H]1O [SONEDENOSON]	89	22
COc1ccc(CCOc2nc(N)c3ncn(C4O[C@H](CO)[C@@H](O)[C@H]4O)c3n2)cc1 (some centres undefined)	480	32
Cc1ccccc1CCOc1nc(N)c2ncn(C3O[C@H](CO)[C@@H](O)[C@H]3O)c2n1 (some centres undefined)	450	39
Nc1nc(OCCCCc2ccccc2)nc2c1ncn2[C@@H]1O[C@H](CO)[C@@H](O)[C@H]1O	2400	170
Cc1ccc(CCOc2nc(N)c3ncn(C4O[C@H](CO)[C@@H](O)[C@H]4O)c3n2)cc1 (some centres undefined)	49	11
CCNC(=O)[C@H]1OC(n2cnc3c(N)nc(C#CNCCc4ccc(CC(=O)O)cc4)nc32)[C@H](O)[C@@H]1O (some centres undefined)	4880	45
CCNC(=O)[C@H]1OC(n2cnc3c(N)nc(C#CNCCc4ccc(F)cc4)nc32)[C@H](O)[C@@H]1O (some centres undefined)	1180	7.7
Nc1nc(OCCC2CCCCC2)nc2c1ncn2[C@@H]1O[C@H](CO)[C@@H](O)[C@H]1O	1600	22
Nc1nc(OCCCc2ccccc2)nc2c1ncn2[C@@H]1O[C@H](CO)[C@@H](O)[C@H]1O	3600	1200
CCNC(=O)[C@H]1OC(n2cnc3c(N)nc(C#CN(C)CCc4ccccc4)nc32)[C@H](O)[C@@H]1O (some centres undefined)	12100	71
CCNC(=O)[C@H]1OC(n2cnc3c(N)nc(NCCc4ccc(Cl)cc4)nc32)[C@H](O)[C@@H]1O (some centres undefined)	–	7.5
COc1cccc(CCOc2nc(N)c3ncn(C4O[C@H](CO)[C@@H](O)[C@H]4O)c3n2)c1 (some centres undefined)	760	320
Nc1nc(C#CCCC2CCCCC2)nc2c1ncn2C1O[C@H](CO)[C@@H](O)[C@H]1O (some centres undefined)	–	26

Structure (SMILES)	Ki (Adenosine receptor A1) [nM]	Ki (Adenosine receptor A2a) [nM]
C[C@@H](CCOc1nc(N)c2ncn(C3O[C@H](CO)[C@H](O)[C@@H]3O)c2n1)c1ccccc1 (some centres undefined)	1600	1700
CC(C)(C)OC(=O)C1CCCN1C[C@@H](O)[C@H](Cc1ccccc1)NC(=O)[C@H](CC(N)=O)NC(=O)OCc1ccccc1 (some centres undefined)	130	2.2
CCNC(=O)[C@H]1OC(n2cnc3c(N)nc(CC4CCC(COC(C)=O)CC4)nc32)[C@H](O)[C@@H]1O (some centres undefined)	14	6.2
CCNC(=O)[C@H]1OC(n2cnc3c(N)nc(CC4CCC(C(=O)OC)CC4)nc32)[C@H](O)[C@@H]1O (some centres undefined)	28.1	4.5
CC[C@H](COc1nc(N)c2ncn(C3O[C@H](CO)[C@@H](O)[C@H]3O)c2n1)c1ccccc1 (some centres undefined)	2300	430
COc1ccccc1CCOc1nc(N)c2ncn(C3O[C@H](CO)[C@@H](O)[C@H]3O)c2n1 (some centres undefined)	190	36
CCNC(=O)[C@H]1OC(n2cnc3c(N)nc(C#CNCCc4ccc(CC(=O)OC)cc4)nc32)[C@H](O)[C@@H]1O (some centres undefined)	1260	9
Nc1nc(OCCCC2CCCCC2)nc2c1ncn2C1O[C@H](CO)[C@@H](O)[C@H]1O (some centres undefined)	2800	22
Nc1nc(C#CCCC2CCCC2)nc2c1ncn2C1O[C@H](CO)[C@@H](O)[C@H]1O (some centres undefined)	–	3.4
CCNC(=O)[C@H]1OC(n2cnc3c(N)nc(CC4CCC(CO)CC4)nc32)[C@H](O)[C@@H]1O (some centres undefined)	0.84	0.48
Nc1nc(OCCCCC2CCCCC2)nc2c1ncn2C1O[C@H](CO)[C@@H](O)[C@H]1O (some centres undefined)	1100	18
Nc1nc(OCCCCCc2ccccc2)nc2c1ncn2C1O[C@H](CO)[C@@H](O)[C@H]1O (some centres undefined)	960	53
COc1ccc(CCOc2nc(N)c3ncn(C4O[C@H](CO)[C@@H](O)[C@H]4O)c3n2)cc1OC (some centres undefined)	380	40
CCNC(=O)[C@H]1OC(n2cnc3c(N)nc(CC4CCC(C(=O)O)CC4)nc32)[C@H](O)[C@@H]1O (some centres undefined)	292	20.1
CCNC(=O)[C@H]1OC(n2cnc3c(N)nc(C#CNCCc4ccccc4)nc32)[C@H](O)[C@@H]1O (some centres undefined)	473	9.7
CCNC(=O)[C@H]1OC(n2cnc3c(N)nc(C#CNCc4ccccc4)nc32)[C@H](O)[C@@H]1O (some centres undefined)	8600	1130

Second part, the compound after the results:

Ki (Adenosine receptor A1) [nM]	Ki (Adenosine receptor A2a) [nM]	Structure (SMILES)
3500	5700	Nc1nc(Oc2ccccc2)nc2c1ncn2C1O[C@H](CO)[C@@H](O)[C@H]1O (some centres undefined)
244	12.8	CCOCCCc1nc(N)c2ncn(C3O[C@H](CO)[C@@H](O)[C@H]3O)c2n1 (some centres undefined)
72	690	Nc1nc(OCCO)nc2c1ncn2C1O[C@H](CO)[C@@H](O)[C@H]1O (some centres undefined)
2700	4600	CCC(CC)COc1nc(N)c2ncn(C3O[C@H](CO)[C@@H](O)[C@H]3O)c2n1 (some centres undefined)
1200	360	CCCOc1nc(N)c2ncn(C3O[C@H](CO)[C@@H](O)[C@H]3O)c2n1 (some centres undefined)
–	10.6	CCCOCc1nc(N)c2ncn(C3O[C@H](CO)[C@@H](O)[C@H]3O)c2n1 (some centres undefined)
2100	130	CC(C)CCCOc1nc(N)c2ncn(C3O[C@H](CO)[C@@H](O)[C@H]3O)c2n1 (some centres undefined)
–	5.4	CCCCCC#Cc1nc(N)c2ncn([C@@H]3O[C@H](CO)[C@@H](O)[C@H]3O)c2n1
460	150	CCCCCOc1nc(N)c2ncn(C3O[C@H](CO)[C@@H](O)[C@H]3O)c2n1 (some centres undefined)
1600	120	Nc1nc(OCCC2CCCC2)nc2c1ncn2C1O[C@H](CO)[C@@H](O)[C@H]1O (some centres undefined)
520	56	Nc1nc(OCCc2ccccc2Cl)nc2c1ncn2C1O[C@H](CO)[C@@H](O)[C@H]1O (some centres undefined)
81.4	40.1	Nc1nc(CCO)nc2c1ncn2C1O[C@H](CO)[C@@H](O)[C@H]1O (some centres undefined)
600	2200	Nc1nc(OCc2ccccc2)nc2c1ncn2C1O[C@H](CO)[C@@H](O)[C@H]1O (some centres undefined)
1300	1500	CCOc1nc(N)c2ncn([C@@H]3O[C@H](CO)[C@@H](O)[C@H]3O)c2n1
2600	700	CC(C)COc1nc(N)c2ncn(C3O[C@H](CO)[C@@H](O)[C@H]3O)c2n1 (some centres undefined)
180	110	Nc1nc(OCCc2cccc(F)c2)nc2c1ncn2[C@@H]1O[C@H](CO)[C@@H](O)[C@H]1O (stereo in doubt; 92)
126	2.8	CCCCc1nc(N)c2ncn(C3O[C@H](CO)[C@@H](O)[C@H]3O)c2n1 (some centres undefined)
130	17	Nc1nc(OCCc2ccccc2)nc2c1ncn2[C@@H]1O[C@H](CO)[C@@H](O)[C@H]1O
–	37	Nc1nc(C#CCCc2ccccc2)nc2c1ncn2[C@@H]1O[C@H](CO)[C@@H](O)[C@H]1O

Ki (Adenosine receptor A1) [nM]	Ki (Adenosine receptor A2a) [nM]	Structure (SMILES)
500	97	Nc1nc(OCCc2ccc(F)cc2)nc2c1ncn2[C@@H]1O[C@H](CO)[C@@H](O)[C@H]1O
–	37.6	C#Cc1nc(N)c2ncn(C3O[C@H](CO)[C@@H](O)[C@H]3O)c2n1 (some centres undefined)
14000	1000	Nc1nc(OC2CCCC2)nc2c1ncn2[C@@H]1O[C@H](CO)[C@@H](O)[C@H]1O
–	12	Nc1nc(C#CC2CCCC2)nc2c1ncn2[C@@H]1O[C@H](CO)[C@@H](O)[C@H]1O
3000	3200	Nc1nc(OCC2CCCCC2)nc2c1ncn2C1O[C@H](CO)[C@@H](O)[C@H]1O (some centres undefined)
2500	270	CCCCOc1nc(N)c2ncn(C3O[C@H](CO)[C@@H](O)[C@H]3O)c2n1 (some centres undefined)
140	61	Cc1cccc(CCOc2nc(N)c3ncn(C4O[C@H](CO)[C@@H](O)[C@H]4O)c3n2)c1 (some centres undefined)
10.1	20.5	Nc1nc(CO)nc2c1ncn2C1O[C@H](CO)[C@@H](O)[C@H]1O (some centres undefined)
202	12.1	CCCCCCc1nc(N)c2ncn(C3O[C@H](CO)[C@@H](O)[C@H]3O)c2n1 (some centres undefined)
154	7.5	CCCc1nc(N)c2ncn(C3O[C@H](CO)[C@@H](O)[C@H]3O)c2n1 (some centres undefined)
38.1	88.1	COCc1nc(N)c2ncn(C3O[C@H](CO)[C@@H](O)[C@H]3O)c2n1 (some centres undefined)
20000	7400	CC(C)Oc1nc(N)c2ncn(C3O[C@H](CO)[C@@H](O)[C@H]3O)c2n1 (some centres undefined)
890	160	CCCCCCOc1nc(N)c2ncn(C3O[C@H](CO)[C@@H](O)[C@H]3O)c2n1 (some centres undefined)
186	21.2	CCc1nc(N)c2ncn(C3O[C@H](CO)[C@@H](O)[C@H]3O)c2n1 (some centres undefined)
–	109	Nc1nc(C#Cc2ccccc2)nc2c1ncn2[C@@H]1O[C@H](CO)[C@@H](O)[C@H]1O
128	10.2	CCCOCCc1nc(N)c2ncn(C3O[C@H](CO)[C@@H](O)[C@H]3O)c2n1 (some centres undefined)
–	10	Nc1nc(C#CC2CCCCC2)nc2c1ncn2C1O[C@H](CO)[C@@H](O)[C@H]1O (some centres undefined)
1490	530	CCC(CC)CCOc1nc(N)c2ncn(C3O[C@H](CO)[C@@H](O)[C@H]3O)c2n1 (some centres undefined)
